# Data published in patent publication US20250099554A1, “COMPOSITIONS AND METHODS OF FAS INHIBITION” (ONL Therapeutics, Inc., priority 2018, published 2025).
# “Also recorded” adds a separate entry of the source. Where a SMILES comes first, the peptide text is derived from it.
# Assays:
# [1] = system: neural retina gene expression following elevated IOP; assay: qPCR of neural retina after microbead-induced elevation of IOP (Example 1); format: in vivo, mice
# Description: Quantitative PCR (qPCR) was used on neural retina samples isolated at 28 days post microbead or saline injection from mice treated with Compound 1 (or vehicle) on Day 0.
# Data shown are mRNA expression fold change over saline+vehicle control+/−SEM. N=6/group, **P<0.01, ***P<0.001, ****P<0.0001.
# A 96-well was expanded to a 384-well qPCR system to allow for an increase in the number of genes to be examined in one run.
# For this qPCR analysis, saline+vehicle was used as the control. DDCt=experimental DCt−mean DCt of saline+vehicle, and Expression Fold Change=2^−DDCt.
# [2] = IOP by rebound tonometer in microbead-induced mouse model of elevated IOP; format: in vivo, C57BL/6J mice
# Procedure: (§1) C57BL/6J mice were used in this experiment in which 2 μL of sterile polystyrene microbeads (15 μm; 7.2×10^6 bead/mL) or saline were injected into the anterior chamber on Day 0 followed by 1 μL of 0.5 mg/mL or 2 mg/mL Compound 1 or vehicle by intravitreal (IVT) injection on Day 0 or 7 days after the microbead/saline injections. IOP was followed every 3 days for 4 weeks using a rebound tonometer (TonoLab). At 4 weeks post anterior chamber injection, retinal flatmounts were prepared and stained for Brn3a, an RGC-specific protein, to visualize RGCs. Sixteen non-overlapping images were taken, at 60× with 4-5 images within each quadrant and the images were used to calculate the RGC density. For axon analysis, optic nerves were stained with p-phenylenediamine (PPD) to visualize myelinated axons and 10 non-overlapping photomicrographs were taken at 100× magnification covering the entire area of the optic nerve cross-section, and these images were used to calculate the axon density. Quantitative PCR (qPCR) was also performed on retinal tissue isolated from the mice at 28 days post microbead/saline injections. To assess production of mature IL-1β (p17), protein lysates (20 μg per sample) were prepared from posterior eye cups (neural retina, choroid, and sclera) at 28 days post microbead/saline injections and analyzed by Western blot and densitometry. All data are presented as mean±SEM. […]
# [3] = system: retinal ganglion cells (RGCs) and axons; assay: RGC (Brn3a) and axon (PPD) density in microbead-induced mouse model of elevated IOP; format: in vivo, C57BL/6J mice
# Procedure: (§2) C57BL/6J mice were used in this experiment in which 2 μL of sterile polystyrene microbeads (15 μm; 7.2×10^6 bead/mL) or saline were injected into the anterior chamber on Day 0 followed by 1 μL of 0.5 mg/mL or 2 mg/mL Compound 1 or vehicle by intravitreal (IVT) injection on Day 0 or 7 days after the microbead/saline injections. IOP was followed every 3 days for 4 weeks using a rebound tonometer (TonoLab). At 4 weeks post anterior chamber injection, retinal flatmounts were prepared and stained for Brn3a, an RGC-specific protein, to visualize RGCs. Sixteen non-overlapping images were taken, at 60× with 4-5 images within each quadrant and the images were used to calculate the RGC density. For axon analysis, optic nerves were stained with p-phenylenediamine (PPD) to visualize myelinated axons and 10 non-overlapping photomicrographs were taken at 100× magnification covering the entire area of the optic nerve cross-section, and these images were used to calculate the axon density. Quantitative PCR (qPCR) was also performed on retinal tissue isolated from the mice at 28 days post microbead/saline injections. To assess production of mature IL-1β (p17), protein lysates (20 μg per sample) were prepared from posterior eye cups (neural retina, choroid, and sclera) at 28 days post microbead/saline injections and analyzed by Western blot and densitometry. All data are presented as mean±SEM. One-way ANOVA and the Sidak multiple-comparison test were used for analysis of RGCs and axons. A p value<0.05 was considered significant.
# [4] = system: retinal microglia/macrophages; assay: Iba1 staining of retinal whole mounts, microglia/macrophage activation; format: in vivo, C57BL/6J mice; details: 28 days post microbead injection, treated at Day 0
# Procedure: FIG. 12 depicts representative confocal images of retinal whole mounts at 28 days post microbead injection from mice treated with ONL1204 (or vehicle) at Day 0. Retinal whole mounts were stained with Iba1 (microglia/macrophage). Yellow arrows indicate homeostatic microglia with dendritic morphology; blue arrows indicate activated microglia and/or infiltrating macrophages with amoeboid morphology. Morphometric analysis was performed on Iba1+cells in the ganglion cell layer (60 cells per retina) and the longest process length measured from the edge of the cell body (in […]) was used to quantitate microglia activation.
# [5] = system: neural retina inflammatory gene expression; assay: qPCR of neural retina at 28 days post microbead injection (Example 2); format: in vivo, C57BL/6J mice; details: treated on Day 0
# Procedure: as §2
# (§3) Quantitative PCR was performed on neural retina isolated at 28 days post microbead injection from mice treated with ONL1204 (or vehicle) on Day 0. Data shown are mRNA expression fold change over saline controls+/−SEM. N=4/group, *P<0.05, **P<0.01. For analysis of mature IL-1β (p17) production, protein lysates ([…] per sample) were prepared from posterior eye cups (neural retina, choroid, and sclera) and analyzed by Western blot.
# mature IL-1β (p17) = assay: Western blot and densitometry of mature IL-1β (p17) in posterior eye cups; format: in vivo, C57BL/6J mice
# Procedure: as §1, with “For axon analysis, optic nerves were stained with p-phenylenediamine (PPD) to visualize myelinated axons and 10 non-overlapping photomicrographs were taken at 100× magnification covering the entire area of the optic nerve cross-section, and these images were used to calculate the axon density.” left out, “densitometry.” for “densitometry. All data are presented as mean±SEM.”
# as §3, with “Data shown are mRNA expression fold change over saline controls+/−SEM. N=4/group, *P<0.05, **P<0.01.” left out
# [6] = 28 days post microbead injection, treated Day 0
# [7] = 28 days post microbead injection, treated Day 0, vs microbeads and vehicle
# [8] = 0.5 mg/ml, 1 μL IVT at Day 0, 4 weeks
# [9] = 2.0 mg/mL IVT at Day 7 post-microbead injection, compared to saline plus vehicle controls
# [10] = 2 mg/ml, 1 μL IVT at Day 0, 4 weeks
compound,measurement,setting,value
"CC[C@H](C)[C@H](NC(=O)[C@H](Cc1ccc(O)cc1)NC(=O)[C@H](CC(N)=O)NC(=O)[C@@H](NC(=O)[C@H](C)NC(=O)CNC(=O)[C@H](CC(C)C)NC(=O)[C@H](Cc1ccc(O)cc1)NC(=O)[C@@H](NC(=O)[C@H](Cc1cnc[nH]1)NC(=O)[C@@H](N)Cc1cnc[nH]1)[C@@H](C)CC)C(C)C)C(=O)N[C@@H](Cc1ccc(O)cc1)C(N)=O [Compound 1, His-His-Ile-Tyr-Leu-Gly-Ala-Val-Asn-Tyr-Ile-Tyr-amide] (H-HHIYLGAVNYIY-NH2)",ASC gene expression,[1]; 28 day time point,Limited or no change
same,Bax gene expression,[1]; 28 day time point,unaffected
same,FADD gene expression,[1]; 28 day time point,unaffected
same,FasL gene expression,[1]; 28 day time point,unaffected
same,FasR gene expression,[1]; 28 day time point,unaffected
same,NLRP2 gene expression,[1]; 28 day time point,Limited or no change
same,caspase 3 gene expression,[1]; 28 day time point,unaffected
same,complement C4 gene expression,[1]; 28 day time point,Limited or no change
same,C1q gene expression,[1]; [6],significantly reduced
same,Caspase 8 gene expression,[1]; [6],significantly reduced
same,Complement C3 gene expression,[1]; [6],significantly reduced
same,NLRP3 gene expression,[1]; [6],significantly reduced
same,TLR4 gene expression,[1]; [6],significantly reduced
same,cFLIP gene expression (pro-survival),"[1]; 28 days post microbead injection, treated Day 0, decreased in microbead controls",restored to near-baseline
same,GFAP gene expression,[1]; [7],significantly reduced
same,IL-1β gene expression,[1]; [7],significantly reduced
same,IL-6 gene expression,[1]; [7],significantly reduced
same,IL-18 gene expression,[1]; [7],significantly reduced
same,IP-10 gene expression,[1]; [7],significantly reduced
same,MCP-1 gene expression,[1]; [7],significantly reduced
same,MIP1α gene expression,[1]; [7],significantly reduced
same,MIP2 gene expression,[1]; [7],significantly reduced
same,MIP-1β gene expression,[1]; [7],significantly reduced
same,TNFα gene expression,[1]; [7],significantly reduced
same,effect on IOP,[2]; IVT injection on Day 7 post microbeads,did not affect
same,effect on IOP,[2]; IVT injection on the same day as the microbeads,did not affect
same,axon density,[3]; [8],statistically significant preservation
same,retinal ganglion cell density,[3]; [8],statistically significant preservation
same,axon density,[3]; [9],nearly total preservation
same,retinal ganglion cell density,[3]; [9],nearly total preservation
same,axon density,[3]; [10],statistically significant preservation
same,retinal ganglion cell density,[3]; [10],statistically significant preservation
same,microglial/macrophage activation,[4],inhibits; also recorded: reduced number of activated microglia/macrophages
same,CCL2/MCP-1 gene expression,[5],substantially inhibited
same,CCL3/MIP-1α gene expression,[5],substantially inhibited
same,TNF-α gene expression,[5],substantially inhibited
same,production of mature IL-1β,mature IL-1β (p17); 28 days post microbead injection,reduced
same,"reduction in production of mature IL-1β by densitometry, compared to vehicle","mature IL-1β (p17); Western blot, following microbead injection",two-fold
